One assay concerns the target T1, human SGLT2 (Homo sapiens, UniProt P31639).
T1 construct: A full-length cDNA clone expressing human SGLT2 (GenScript Corporation) was subcloned into Hind III and Not I sites of pEAK15 expression vector
T1 sequence (P31639 1-672): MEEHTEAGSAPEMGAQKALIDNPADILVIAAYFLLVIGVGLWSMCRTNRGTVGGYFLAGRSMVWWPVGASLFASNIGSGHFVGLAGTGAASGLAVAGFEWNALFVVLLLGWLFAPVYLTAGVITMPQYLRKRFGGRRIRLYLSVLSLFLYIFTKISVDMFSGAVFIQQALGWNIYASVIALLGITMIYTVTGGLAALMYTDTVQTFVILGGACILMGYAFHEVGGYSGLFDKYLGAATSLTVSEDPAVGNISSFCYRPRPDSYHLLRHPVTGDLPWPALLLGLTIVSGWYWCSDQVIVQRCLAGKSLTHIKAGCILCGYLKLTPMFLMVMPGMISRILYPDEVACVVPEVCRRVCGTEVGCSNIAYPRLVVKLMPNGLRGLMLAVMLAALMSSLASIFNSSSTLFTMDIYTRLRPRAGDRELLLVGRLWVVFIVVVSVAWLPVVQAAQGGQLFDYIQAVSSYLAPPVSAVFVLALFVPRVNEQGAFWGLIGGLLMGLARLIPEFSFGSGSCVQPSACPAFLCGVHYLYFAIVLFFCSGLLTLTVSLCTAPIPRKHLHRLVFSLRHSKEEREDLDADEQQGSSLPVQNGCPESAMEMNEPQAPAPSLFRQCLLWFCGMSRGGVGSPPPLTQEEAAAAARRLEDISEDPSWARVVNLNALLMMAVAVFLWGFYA
Kind of assay: Methyl-α-D-[U-14C]glucopyranoside uptake assay, cells stably expressing human SGLT2. The note with it: HEK293.ETN cells stably expressing human SGLT2; 25% human serum; 1.5 h at 37° C.; sodium-dependent uptake. Type of assay: cell-based. The source says: A full-length cDNA clone expressing human SGLT2 (GenScript Corporation) was subcloned into Hind III and Not I sites of pEAK15 expression vector. Clones harboring the cDNA inserts were identified by restriction analysis.
Plasmid containing human SGLT2 was linearized with Nsi I and purified by agarose gel electrophoresis. Using Lipofectamine 2000 Transfection Reagent (Invitrogen Corporation), DNA was transfected into HEK293.ETN cells and cultured in Dulbecco's Modified Eagle Medium (DMEM) containing 10% fetal bovine serum (FBS) at 37° C. under 5% CO2 for 24 h. Transfectants were selected in the same growth medium supplemented with puromycin (Invitrogen Corporation) for two weeks. Puromycin-resistant cells were recovered and seeded on a fresh 96-well plate (single cell per well) and cultured in the presence of puromycin until cells became confluent. Puromycin-resistant clones were evaluated for SGLT2 activity in the methyl-α-D-[U-^14C]glucopyranoside uptake assay described below.
(§1) Cells expressing SGLT1 or SGLT2 were seeded on 96-well ScintiPlate scintillating plates (PerkinElmer, Inc.) in DMEM containing 10% FBS (1×10^5 cells per well in 100 μl medium) incubated at 37° C. under 5% CO2 for 48 h prior to the assay. Cells were washed twice with 150 μl of either sodium buffer (137 mM NaCl, 5.4 mM KCl, 2.8 mM CaCl2, 1.2 mM MgCl2, 10 mM tris(hydroxymethyl)aminomethane/N-2-hydroxyethylpiperazine-N′-ethanesulfonic acid [Tris/Hepes], pH 7.2) or sodium-free buffer (137 mM N-methyl-glucamine, 5.4 mM KCl, 2.8 mM CaCl2, 1.2 mM MgCl2, 10 mM Tris/Hepes, pH 7.2). Test compound in 50 μl each of sodium or sodium-free buffer containing 40 μCi/ml methyl-α-D-[U-^14C]glucopyranoside (Amersham Biosciences/GE Healthcare) and 25% human serum was added per well of a 96-well plate and incubated at 37° C. with shaking for either 2 h (SGLT1 assay) or 1.5 h (SGLT2 assay). Cells were washed twice with 150 μl of wash buffer (137 mM N-methylglucamine, 10 mM Tris/Hepes, pH 7.2) and methyl-α-D-[U-^14C]glucopyranoside uptake was quantitated using a TopCount scintillation counter (PerkinElmer, Inc.). Sodium-dependent glucopyranoside uptake was measured by subtracting the values obtained with sodium-free buffer from those obtained using sodium buffer (average of triplicate determinations).

A further assay has as its target T2, human SGLT1 (Homo sapiens, UniProt P13866).
T2 construct: Full-length human SGLT1 cDNA on pDream2.1 expression vector was obtained from GenScript Corporation; host or cells: COS-7 (American Type Culture Collection)
T2 sequence (P13866 1-664): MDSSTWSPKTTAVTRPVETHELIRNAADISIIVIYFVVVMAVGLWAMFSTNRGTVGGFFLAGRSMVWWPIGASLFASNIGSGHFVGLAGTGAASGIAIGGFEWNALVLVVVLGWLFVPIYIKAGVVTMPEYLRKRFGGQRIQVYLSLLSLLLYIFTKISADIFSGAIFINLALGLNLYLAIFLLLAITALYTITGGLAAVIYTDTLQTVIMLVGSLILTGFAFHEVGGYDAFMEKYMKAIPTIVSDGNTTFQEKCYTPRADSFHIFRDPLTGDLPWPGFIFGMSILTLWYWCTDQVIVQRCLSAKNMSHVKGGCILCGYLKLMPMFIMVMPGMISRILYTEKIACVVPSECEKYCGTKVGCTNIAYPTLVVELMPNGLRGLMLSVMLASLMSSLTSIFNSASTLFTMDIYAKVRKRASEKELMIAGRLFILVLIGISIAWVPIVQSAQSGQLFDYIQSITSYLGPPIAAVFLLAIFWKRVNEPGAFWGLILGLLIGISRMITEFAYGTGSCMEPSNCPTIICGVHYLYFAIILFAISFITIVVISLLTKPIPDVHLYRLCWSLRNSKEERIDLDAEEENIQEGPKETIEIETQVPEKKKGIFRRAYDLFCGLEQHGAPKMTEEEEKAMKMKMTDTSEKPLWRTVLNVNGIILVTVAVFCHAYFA
As to the kind of experiment: Methyl-α-D-[U-14C]glucopyranoside uptake assay, human SGLT1 expressing cells. The settings on record: COS-7 cells transfected with human SGLT1; 25% human serum; 2 h at 37° C.; sodium-dependent uptake. Type of assay: cell-based. As to the method:
Full-length human SGLT1 cDNA on pDream2.1 expression vector was obtained from GenScript Corporation and propagated in Escherichia coli strain DH5α using Luria-Bertani (LB) medium containing ampicillin. Plasmid DNA was isolated using the QIAGEN Plasmid Midi Kit (QIAGEN Inc.). […] Transfected cells were stored in DMEM containing 10% dimethyl sulfoxide (DMSO) at −80 ° C.
as §1

Experimental findings from US8129434B2, “Benzylphenyl cyclohexane derivatives and methods of use” (Theracos, Inc., priority 2007, dated 2012) are described below.

Usually IC50 stands for the concentration needed to halve the response being measured. A low value points to higher potency. For the compound `CC(O)c1ccc(Cc2cc([C@H]3[C@H](O)[C@@H](O)[C@H](O)[C@@H](CO)[C@@H]3O)ccc2Cl)cc1` (stereo partly drawn) [Compound 40, (1R,2R,3S,4R,5R,6S)-4-(4-chloro-3-(4-(1-hydroxyethyl)benzyl)phenyl)-6-(hydroxymethyl)cyclohexane-1,2,3,5-tetraol], the half-inhibitory concentration (IC50) is below 1000 nM against human SGLT2 and 1 to 10 µM against human SGLT1.

With `CCc1ccc(Cc2ccccc2O[C@H]2[C@H](O)[C@@H](O)[C@H](O)[C@@H](CO)[C@@H]2O)cc1` [Compound 30, (1R,2S,3R,4R,5S,6R)-4-(2-(4-ethylbenzyl)phenoxy)-6-(hydroxymethyl)cyclohexane-1,2,3,5-tetraol], the 50% inhibitory concentration (IC50) against human SGLT2 was below 1000 nM; on human SGLT1 it was above 10 µM.

`CCc1ccc(Cc2cc([C@H]3[C@H](O)[C@@H](O)[C@H](O)[C@@H](CO)C34CC4)ccc2Cl)cc1` [Compound 37, (4S,5S,6R,7R,8R)-4-(4-chloro-3-(4-ethylbenzyl)phenyl)-8-(hydroxymethyl)spiro[2.5]octane-5,6,7-triol]: the IC50 is below 1000 nM against human SGLT2 and 1 to 10 µM against human SGLT1.

With `CC(=O)c1ccc(Cc2cc([C@H]3[C@H](O)[C@@H](O)[C@H](O)[C@@H](CO)[C@@H]3O)ccc2Cl)cc1` [Compound 39, 1-(4-(2-chloro-5-((1R,2S,3R,4R,5S,6R)-2,3,4,6-tetrahydroxy-5-(hydroxymethyl)cyclohexyl)benzyl)phenyl)ethanone], the IC50 against human SGLT2 was below 1000 nM; on human SGLT1 it was 1 to 10 µM.

Regarding `OC[C@H]1C=C(c2ccc(Cl)c(Cc3ccc(OCC#CC4CC4)cc3)c2)[C@H](O)[C@@H](O)[C@@H]1O` [Compound 13, (1R,2S,3S,6R)-4-(4-chloro-3-(4-(3-cyclopropylprop-2-ynyloxy)benzyl)phenyl)-6-(hydroxymethyl)cyclohex-4-ene-1,2,3-triol], the IC50 was below 1000 nM on human SGLT2 and above 10 µM on human SGLT1.

For the compound `CCc1ccc(Cc2cc([C@H]3[C@H](O)[C@@H](O)[C@H](O)[C@@H](COC(C)=O)[C@@H]3O)ccc2Cl)cc1` [Compound 17, ((1S,2R,3R,4S,5R,6R)-3-(4-chloro-3-(4-ethylbenzyl)phenyl)-2,4,5,6-tetrahydroxycyclohexyl)methyl acetate], the half-maximal inhibitory concentration (IC50) against human SGLT2 was below 1000 nM; on human SGLT1, 1 to 10 µM.

For `OC[C@@H]1[C@@H](O)[C@H](O)[C@@H](O)[C@H](c2ccc(Cl)c(Cc3ccc(C4CC4)cc3)c2)[C@H]1O` [Compound 10, (1R,2R,3S,4R,5R,6S)-4-(4-chloro-3-(4-cyclopropylbenzyl)phenyl)-6-(hydroxymethyl)cyclohexane-1,2,3,5-tetraol], the concentration for half-maximal inhibition (IC50) on human SGLT2 is below 1000 nM; at human SGLT1 it was below 1 µM.

For `C=C1[C@H](CO)[C@@H](O)[C@H](O)[C@@H](O)[C@@H]1c1ccc(Cl)c(Cc2ccc(CC)cc2)c1` [Compound 35, (1R,2R,3S,4S,6R)-4-(4-chloro-3-(4-ethylbenzyl)phenyl)-6-(hydroxymethyl)-5-methylenecyclohexane-1,2,3-triol], the IC50 against human SGLT2 is below 1000 nM; on human SGLT1, 1 to 10 µM.

Turning to `CCOc1ccc(Cc2cc([C@H]3[C@H](O)[C@@H](O)[C@H](O)[C@@H](CO)[C@@H]3O)ccc2Cl)cc1` [Compound 9, (1R,2R,3S,4R,5R,6S)-4-(4-chloro-3-(4-ethoxybenzyl)phenyl)-6-(hydroxymethyl)cyclohexane-1,2,3,5-tetraol], the IC50 was below 1000 nM against human SGLT2 and 1 to 10 µM on human SGLT1.

Consider `CCc1ccc(Cc2cc([C@H]3[C@H](O)[C@@H](O)[C@H](O)[C@@H](CO)[C@@H]3O)ccc2Cl)cc1` [5 (R = Et), (1R,2R,3S,4R,5R,6S)-4-(4-chloro-3-(4-ethylbenzyl)phenyl)-6-(hydroxymethyl)cyclohexane-1,2,3,5-tetraol], for which the IC50 at human SGLT2 was below 1000 nM; against human SGLT1 it was below 1 µM.

On to `OC[C@@H]1[C@@H](O)[C@H](O)[C@@H](O)[C@H](c2ccc(Cl)c(Cc3ccc(C4CCCCC4)cc3)c2)[C@H]1O` [Compound 12, (1R,2R,3S,4R,5R,6S)-4-(4-chloro-3-(4-cyclohexylbenzyl)phenyl)-6-(hydroxymethyl)cyclohexane-1,2,3,5-tetraol], for which the IC50 on human SGLT2 was below 1000 nM; at human SGLT1, above 10 µM.

Take `CCCc1ccc(Cc2cc([C@H]3[C@H](O)[C@@H](O)[C@H](O)[C@@H](CO)[C@@H]3O)ccc2Cl)cc1` [Compound 11, (1R,2R,3S,4R,5R,6S)-4-(4-chloro-3-(4-propylbenzyl)phenyl)-6-(hydroxymethyl)cyclohexane-1,2,3,5-tetraol]: the figures for the concentration for half-maximal inhibition (IC50) against human SGLT2 and against human SGLT1 were below 1000 nM and 1 to 10 µM, respectively.
